In patent US20040110963A1, “Novel hydrazones” (priority 2001, published 2004):
In brackets after ≈: the same amount, converted by molar mass.

Experiments:
Assay in all cases: In vitro antibacterial activity (MIC, NCCLS M7-A5 dilution susceptibility test)
Type in all cases: cell-based
Escherichia coli DC2 = details: for MIC: read-out: Minimum Inhibitory Concentration (MIC) Escherichia coli DC2
Experimental: (§1) Antimicrobial susceptibility testing was performed in accordance with the National Committee for Clinical Laboratory Standards (NCCLS) procedure [M7-A5, 2001: Methods for Dilution Antimicrobial Susceptibility Tests for Bacteria That Grow Aerobically; Approved Standard-Fifth Edition American National Standard].

[1] = system: Staphylococcus aureus 101; details: for MIC: read-out: Minimum Inhibitory Concentration (MIC) Staphylococcus aureus 101
Experimental: as §1

[2] = system: Staphylococcus aureus ATCC25923; details: for MIC: read-out: Minimum Inhibitory Concentration (MIC) Staphylococcus aureus ATCC25923
Experimental: as §1

| Molecule | MIC (Escherichia coli DC2) [µg/mL] | MIC [1] [µg/mL] | MIC [2] [µg/mL] | Minimum Inhibitory Concentration (MIC) Escherichia coli DC2 (Escherichia coli DC2) | Minimum Inhibitory Concentration (MIC) Staphylococcus aureus 101 [1] [micrograms/ml] | Minimum Inhibitory Concentration (MIC) Staphylococcus aureus ATCC25923 [2] [micrograms/ml] |
| --- | --- | --- | --- | --- | --- | --- |
| COc1ccc(C(=O)NN=Cc2ccc(O)c(O)c2O)cc1 [Example 39, 4-Methoxy-N′-(2,3,4-trihydroxy-benzylidene)-benzohydrazide] | 64 (≈ 212 µM) | 64 (≈ 212 µM) | 64 (≈ 212 µM) | – | – | – |
| 3,5-Bis-(trifluoromethyl)-N′-(2,3,4-trihydroxy-benzylidene)-benzohydrazide [Example 41] | – | – | – | na (na means not active at concentrations less than 128 μg/ml) | 64 | 64 |
| O=C(NN=Cc1cc(O)c(O)cc1O)c1ccccc1-n1cccc1 [Example 44, 2-Pyrrol-1-yl-N′-(2,4,5-trihydroxy-benzylidene)-benzohydrazide] | 128 (≈ 379 µM) | 64 (≈ 190 µM) | 64 (≈ 190 µM) | – | – | – |
| O=C(NN=Cc1ccc(O)c(O)c1O)c1ccc(Cl)c(C(F)(F)F)c1 [Example 45, 4-Chloro-3-trifluoromethyl-N′-(2,3,4-trihydroxy-benzylidene)-benzohydrazide] | 2 (≈ 5.34 µM) | 1 (≈ 2.67 µM) | 0.5 (≈ 1.33 µM) | – | – | – |
| O=C(NN=Cc1cc(Cl)cc(Cl)c1O)c1ccc(Cl)c(C(F)(F)F)c1 [Example 46, 4-Chloro-3-trifluoromethyl-N′-(2-hydroxy-3,5-dichloro-benzylidene)-benzohydrazide] | > 128 | 128 (≈ 311 µM) | 128 (≈ 311 µM) | – | – | – |
| O=C(NN=Cc1cc(Cl)cc(Cl)c1O)c1cccc(Cl)c1-n1cccc1 [Example 43, 3-Chloro-2-pyrrol-1-yl-N′-(2-hydroxy-3,5-dichloro-benzylidene)-benzohydrazide] | > 128 | 2 (≈ 4.89 µM) | 2 (≈ 4.89 µM) | – | – | – |
| O=C(NN=Cc1ccc(O)c(O)c1O)c1cccc(Cl)c1-n1cccc1 [Example 42, 3-Chloro-2-pyrrol-1-yl-N′-(2,3,4-trihydroxy-benzylidene)-benzohydrazide] | 128 (≈ 344 µM) | 32 (≈ 86.1 µM) | 32 (≈ 86.1 µM) | – | – | – |
